Values quoted from earlier work as cited in US6733485B1, “Microstimulator-based electrochemotherapy methods and systems” (Advanced Bionics Corporation, priority 2001, dated 2004).
Where a name gives a salt, the structure may show the parent alone. Read-outs that look alike come from different tables or passages of the source.

Legend:
[1] = system: metastatic lesion of oral fibrosarcoma
[2] = system: rat and human glioma cells
[3] = system: tumors in mice
[4] = system: malignant melanoma skin metastases
[5] = system: permeation nodules of head and neck squamous cell carcinomas
[6] = system: human T98G glioma cells
[7] = system: subcutaneously established colorectal tumor
[8] = system: HNSCC permeation nodules, salivary cancer, and breast cancer; conditions: electrochemotherapy
[9] = system: cutaneous and subcutaneous tumors
[10] = in vitro, administered along with electrical stimulation
[11] = system: subcutaneous metastasis of hypernephroma; conditions: three sessions over four weeks, electric pulses 10 minutes after intravenous injection
[12] = system: multicellular prostate tumor spheroids; conditions: DC electrical field 500 V/m for 90 seconds

O=P1(N(CCCl)CCCl)NCCCO1 (centres unmarked) [cyclophosphamide]
effect on tumor growth ([1]; cyclophosphamide injection alone): no significant suppressive effect
tumor size ([1]; intraperitoneal injection followed by local electric pulses, several days after treatment): markedly reduced in size

COc1cc([C@@H]2c3cc4c(cc3[C@@H](O[C@@H]3O[C@@H]5CO[C@@H](C)O[C@H]5[C@H](O)[C@H]3O)[C@H]3COC(=O)[C@H]23)OCO4)cc(OC)c1O [etoposide]
enhancement of cytotoxicity by electric stimulation [2]: no electrochemotherapy enhancement

N.N.[Cl][Pt][Cl] [cisplatin]
platinum bound to DNA, electrochemotherapy versus cisplatin treated tumors ([3]; all time points tested): Approximately two
tumor growth delay ([3]; cisplatin treatment without electric pulses, intratumoral 1-8 mg/kg): up to 20 days
tumor cures (local tumor control plateau) ([3]; electrochemotherapy, 4 mg/kg, eight pulses 100 μsec, 1 Hz, 1040 V): 67%
median time to progression ([4]; chemotherapy-treated nodules (cisplatin alone)): four
tumor nodules responded ([4]; cisplatin alone, 18 nodules): 22%
tumor nodules responded ([4]; electrochemotherapy, four weeks after treatment, 27 nodules): 48%
median time to progression ([4]; electrochemotherapy-treated nodules): 21 weeks

bleomycin
side effects ([5]; 10 mg/m^2 intravenous bolus plus electric pulses, eight patients): Neither local nor general side effects were observed
nodules with clinical complete response ([5]; 10 mg/m^2 intravenous bolus, then 4 or 8 cycles of 100 μsec pulses at 1300 V/cm, 40 nodules, within a few days): 57%
increase of toxicity of bleomycin by electric stimulation ([6]; 8 cycles, 1 Hz square wave, 100 μsecond, 1000 V/cm): more than 1000 fold
increase of toxicity at reduced bleomycin concentration ([6]; bleomycin concentration 100 pg/ml): This increase disappeared
tumor development ([7]; intratumoral, intravenous or intraperitoneal, 1/50 to 1/2 of LD50, 500 to 2,000 V/cm): Significant suppression of tumor development and even some cures
cures on repeated electrochemotherapy ([7]; lowest dose of bleomycin and lowest electric field intensity, repeated): complete cures of colorectal cancer were achieved in all animals
effectiveness after intraarterial or intranodular injection [8]: effective
antitumor effects ([8]; seven patients): Clear antitumor effects were obtained
complete responses in nodules ([9]; bleomycin only, no electric pulses): No complete responses
patients responding to the treatment ([9]; bleomycin plus 6-8 pulses, 1300 V/cm, 34 patients): All patients responded
nodules with complete responses ([9]; bleomycin plus electric pulses): 91%
side effects ([9]; bleomycin plus electric pulses): no significant side effects were noted
metastatic nodules or primary tumors with responses ([9]; bleomycin plus electric pulses, within 12 weeks): 142 of 143
factor by which the dose of bleomycin can be reduced [10]: 100-5000
time for which tumor volume was stabilized [11]: 12 months

Cc1ncc(CNC(=O)N(CCCl)N=O)c(N)n1 [nimustine hydrochloride]
enhancement of cytotoxicity by electric stimulation ([2]; carboplatin: high dose): no electrochemotherapy enhancement

COc1cccc2c1C(=O)c1c(O)c3c(c(O)c1C2=O)C[C@@](O)(C(=O)CO)C[C@@H]3O[C@H]1C[C@H](N)[C@H](O)[C@H](C)O1 [doxorubicin]
uptake of doxorubicin [12]: did increase their uptake of doxorubicin

CC[C@]1(O)C[C@H]2CN(CCc3c([nH]c4ccccc34)[C@@](C(=O)OC)(c3cc4c(cc3OC)N(C=O)[C@H]3[C@@](O)(C(=O)OC)[C@H](OC(C)=O)[C@]5(CC)C=CCN6CC[C@]43[C@@H]65)C2)C1 [vincristine]
enhancement of cytotoxicity by electric stimulation [2]: no electrochemotherapy enhancement

N.N.O=C([O-])C1(C(=O)[O-])CCC1.[Pt+2] [carboplatin]
enhancement of cytotoxicity by electric stimulation ([2]; carboplatin: high dose): only slightly enhanced
